Measurements reported in patent US20240325339A1, “MELATONIN AGONIST TREATMENT” (Vanda Pharmaceuticals Inc., priority 2006, published 2024).
Entries after “also recorded” stand apart in the source; their conditions may differ.

Legend:
[1] = system: elderly patients with primary insomnia; conditions: 28-day Phase II study; cited from earlier work
healthy volunteers [2] = assay: Example 1 clinical trial, 5-hour advance in bedtime: polysomnography (sleep efficiency, sleep latency, WASO, sleep architecture); conditions: human, in vivo
Method: A clinical trial was conducted to assess the safety of MA-1 as well as to determine the ability of MA-1 to shift the sleep/wake cycle following a 5-hour advance in bedtime. The study was a randomized, double-blind, parallel group, placebo-controlled study. It consisted of a 2-4-week outpatient screening period followed by an 8-day inpatient stay. After acclimating to the sleep lab, bedtime was advanced by 5 hours. The primary objectives of this study were to investigate the exposure-response to MA-1 on advancement of circadian release of endogenous melatonin rhythm as measured by dim light melatonin onset (DLMO, a biomarker of the sleep-wake cycle), to investigate the exposure-response to MA-1 on mean sleep efficiency parameters as measured by PSG, to investigate the exposure-response to MA-1 on objective neurobehavioral performance lapses during scheduled work-time as measured by computerized continuous performance testing, and to assess the safety and tolerability of MA-1. Forty-five healthy volunteers, men and women aged 18-50, were enrolled into this study. […]
The study was designed to assess the safety and efficacy of four oral doses of MA-1 (10 mg, 20 mg, 50 mg and 100 mg) compared to matching placebo on circadian phase shift, sleep parameters during the major sleep episode, and subject alertness. […] Baseline assessments for the efficacy parameters were measured during this period. […]

healthy volunteers [3] = assay: Example 1 clinical trial, 5-hour advance in bedtime: dim light melatonin onset (DLMO) from plasma melatonin; format: in vivo, human
Method: (§1) A clinical trial was conducted to assess the safety of MA-1 as well as to determine the ability of MA-1 to shift the sleep/wake cycle following a 5-hour advance in bedtime. The study was a randomized, double-blind, parallel group, placebo-controlled study. It consisted of a 2-4-week outpatient screening period followed by an 8-day inpatient stay. After acclimating to the sleep lab, bedtime was advanced by 5 hours. The primary objectives of this study were to investigate the exposure-response to MA-1 on advancement of circadian release of endogenous melatonin rhythm as measured by dim light melatonin onset (DLMO, a biomarker of the sleep-wake cycle), to investigate the exposure-response to MA-1 on mean sleep efficiency parameters as measured by PSG, to investigate the exposure-response to MA-1 on objective neurobehavioral performance lapses during scheduled work-time as measured by computerized continuous performance testing, and to assess the safety and tolerability of MA-1. Forty-five healthy volunteers, men and women aged 18-50, were enrolled into this study. Thirty-nine subjects were randomized.
The study was designed to assess the safety and efficacy of four oral doses of MA-1 (10 mg, 20 mg, 50 mg and 100 mg) compared to matching placebo on circadian phase shift, sleep parameters during the major sleep episode, and subject alertness. After written informed consent was signed, subjects that met the inclusion/exclusion criteria at screening and baseline were enrolled into the 8-day in-patient portion of the study. All in-patient assessments were conducted in a time-isolation sleep lab in which no time cues were available to subjects. During the first three nights, subjects were given placebo 30 minutes prior to bedtime (11:00 PM) in a single-blind fashion. Baseline assessments for the efficacy parameters were measured during this period. At 5:00 PM on day 3, subjects started a 19 hour Pre-constant posture (CP) segment during which time the subjects remained seated in a semi-recumbent position and blood samples were collected approximately every hour from 7:00 AM to 12:00 PM. The purpose of the pre-CP segment is to provide a measure of each subject's circadian phase before the start of the night shift segment. On day 4, subjects were randomized to once daily treatment in one of the five treatment groups. In addition, subject sleep-wake routines were advanced 5 hours, such that subjects were required to sleep from approximately 6:00 PM-2:00 AM. […] Safety was assessed throughout the study, at the end of study (EOS) visit on day 8, and at the Follow-up visit. […]
To assess circadian sleep-wake cycles in the study, plasma melatonin levels were assessed. […] To assess the effects of MA-1 on the sleep-wake cycles, DLMO was monitored in subjects before and after treatment. […]

[4] = system: preclinical models of acute phase-shifting and chronic re-entrainment; conditions: cited from earlier work
[5] = system: healthy male and female subjects with induced transient insomnia; assay: Example 2 study: tolerability; format: in vivo, human; conditions: single oral doses 20, 50 and 100 mg
Method: (§2) A multi-center, randomized, double-blind, placebo-controlled, parallel-group study was conducted to investigate the efficacy and safety of single oral doses of VEC-162 (20, 50, and 100 mg) and matching placebo in healthy male and female subjects with induced transient insomnia. Approximately four hundred subjects were randomized in approximately a 1:1:1:1 ratio to the treatment groups.
(§3) In general, a screening period began 14 to 35 days prior to the start of the evaluation period, which was Day 1. Prior to Day 1, subjects were asked to increase their sleep time to 9 hours per night. Drug, or placebo, was administered on Night 1, approximately 0.5 hour prior to lights off.

[6] = Example 1 clinical trial: exposure (Cmax, AUC); format: in vivo, human
Method: as §1
The differences in DLMO25% between the endpoint day (Nights 4, 5 and 6) and baseline (Night 3) were analyzed by comparing pairwise each dose group to placebo using a linear one-way analysis of variance (ANOVA) model using in SAS® (SAS® Institute, Cary, North Carolina). Means were calculated using the LS Means method in SAS®. Standard deviations were calculated using the Statistical Summary function in SAS®. Other statistical tests were also presented in graphics. These included: linear regression of response vs. exposure (dose, AUC, or Cmax), Kendall-tau nonparametric regression, and Spearman nonparametric regression.

healthy volunteers [7] = conditions: cited from earlier work
Solubility = format: physicochemical
[8] = 50 mg; cited from earlier work
MT1R melatonin receptor = MT1R melatonin receptor (Homo sapiens, UniProt P48039); conditions: cited from earlier work
Chain of MT1R melatonin receptor (P48039 whole entry): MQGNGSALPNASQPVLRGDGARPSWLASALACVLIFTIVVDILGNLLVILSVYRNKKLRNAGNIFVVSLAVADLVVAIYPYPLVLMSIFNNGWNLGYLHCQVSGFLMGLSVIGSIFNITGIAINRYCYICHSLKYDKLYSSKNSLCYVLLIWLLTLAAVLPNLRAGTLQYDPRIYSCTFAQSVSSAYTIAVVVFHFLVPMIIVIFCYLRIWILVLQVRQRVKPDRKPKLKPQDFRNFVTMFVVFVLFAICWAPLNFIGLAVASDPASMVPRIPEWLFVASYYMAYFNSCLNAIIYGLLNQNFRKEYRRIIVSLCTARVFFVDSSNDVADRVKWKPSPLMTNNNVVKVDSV

MT2R melatonin receptor = molecular target: T1, MT2R melatonin receptor (Homo sapiens, UniProt P49286); conditions: cited from earlier work
T1 sequence (P49286 1-362): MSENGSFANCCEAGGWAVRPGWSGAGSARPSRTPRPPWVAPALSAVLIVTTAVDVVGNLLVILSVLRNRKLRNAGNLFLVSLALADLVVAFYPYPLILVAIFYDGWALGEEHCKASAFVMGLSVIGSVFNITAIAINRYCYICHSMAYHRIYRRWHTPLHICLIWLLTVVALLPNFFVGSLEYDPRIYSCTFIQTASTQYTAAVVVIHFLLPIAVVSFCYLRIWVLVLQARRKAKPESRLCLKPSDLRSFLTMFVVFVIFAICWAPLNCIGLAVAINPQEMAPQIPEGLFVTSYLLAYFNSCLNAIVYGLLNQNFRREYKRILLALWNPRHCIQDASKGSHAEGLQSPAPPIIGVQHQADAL

[9] = system: healthy male and female subjects with induced transient insomnia; assay: Example 2 study of single oral doses in induced transient insomnia: polysomnography; format: in vivo, human
Method: as §2, §3
The primary efficacy variable was LPS. LPS is defined as the length of time elapsed between lights off and onset of persistent sleep. In this trial, persistent sleep is defined as the point at which 10 minutes of uninterrupted sleep has begun. Sleep was determined on the basis of polysomnography (PSG).
Secondary efficacy parameters included the following: • Wake After Sleep Onset (WASO): WASO is defined as the time spent awake between onset of sleep and Lights On during Night 1, determined by PSG. • Latency to Non-Awake (LNA): LNA is defined as the number of minutes to reach any stage of sleep. • Total Sleep Time (TST): TST is defined as the number of minutes spent asleep during the entire time in bed.

Which results are given for `CCC(=O)NC[C@@H]1C[C@H]1c1cccc2c1CCO2` [MA-1, (1R-trans)-N-[[2-(2,3-dihydro-4-benzofuranyl)cyclopropyl]methyl]propanamide]?
Sleep latency and number of nocturnal awakenings versus placebo [1]: did not differentiate from placebo; Percentage of time in each sleep stage between Night 4 and Night 2 (healthy volunteers [2]): did not change; Change in DLMO25%, LOQ5 between Night 4 and Night 3 (healthy volunteers [3]; 10 mg oral, N = 8, mean): 0.18 h; Change in DLMO25%, LOQ5 between Night 4 and Night 3 (healthy volunteers [3]; 20 mg oral, N = 7, mean): -1.14 h; Change in DLMO25%, LOQ5 between Night 4 and Night 3 (healthy volunteers [3]; 50 mg oral, N = 4, mean): -0.50 h; Change in DLMO25%, LOQ5 between Night 4 and Night 3 (healthy volunteers [3]; 100 mg oral, N = 5, mean ± SD): -2.74 ± 1.95 h; Chronobiotic activity [4]: potent chronobiotic activity; Tolerability [5]: well-tolerated at all doses; Exposure levels: effect of covariates ([6]; human, in vivo): not affected by age, weight, height, gender, creatinine clearance, or ALT baseline levels; AUC versus dose ([6]; oral doses 10-100 mg): increased approximately proportional to dose; Cmax versus dose ([6]; oral doses 10-100 mg): increased in a manner approximately proportional to the dose; Tolerability, multiple doses (healthy volunteers [7]; multiple doses up to 150 mg, up to 28 days): safety and tolerability of MA-1 at doses up to 150 mg has been demonstrated; also recorded: well-tolerated; Tolerability, single doses (healthy volunteers [7]; single oral doses up to 300 mg, healthy volunteers): safe and well tolerated; Effect of pH on aqueous solubility (Solubility): practically unaffected by pH; Shift of circadian rhythms [8]: consistently shifted circadian rhythms; Agonist activity at MT1R (MT1R melatonin receptor): specific and potent agonist; Agonist activity at MT2R (MT2R melatonin receptor): specific and potent agonist; Efficacy compared with 100 mg ([9]; 20 mg single oral dose): comparable or superior to 100 mg; Efficacy compared with 100 mg ([9]; 50 mg single oral dose): more efficacious than 100 mg
